Data reported in PubChem BioAssay AID200 (DTP/NCI, 2004).
Several values for one entry are separate records, joined by “and”; a condition that tells them apart may be missing. Equal values may be shown once. Toxic doses and inconclusive results are not listed. Where a SMILES comes first, the peptide text is derived from it. Bridges are numbered along the chain shown (N, C = ends).

System: B6C3F1 mice, B16 melanoma ip, median survival T/C
Assay: NCI In Vivo Anticancer Drug Screen. Data for tumor model B16 Melanoma (intraperitoneal) in B6C3F1 mice
Details: endpoint: median survival time, higher = longer survival
Procedure: The antitumor activity of compounds was measured in mice bearing transplantable tumors. Survival or tumor size were measured and the results are expressed as the measurement made in the treated group (T) divided by the measurement made in the vehicle treated control group (C). The tumor model used in this assay is B16 Melanoma (intraperitoneal) in B6C3F1 mice

[1] = dose: 6.25 mg/kg/injection, schedule: Q01DX009 (ip), vehicle: saline
[2] = dose: 12.5 mg/kg/injection, schedule: Q01DX009 (ip), vehicle: saline with Tween-80
[3] = dose: 12.5 mg/kg/injection, schedule: Q01DX009 (ip), vehicle: saline
[4] = dose: 25.0 mg/kg/injection, schedule: Q01DX009 (ip), vehicle: saline
[5] = dose: 50.0 mg/kg/injection, schedule: Q01DX009 (ip), vehicle: saline
[6] = dose: 100.0 mg/kg/injection, schedule: Q01DX009 (ip), vehicle: saline
[7] = dose: 100.0 mg/kg/injection, schedule: Q01DX009 (ip), vehicle: saline with Tween-80
[8] = dose: 200.0 mg/kg/injection, schedule: Q01DX009 (ip), vehicle: saline with Tween-80
[9] = dose: 400.0 mg/kg/injection, schedule: Q01DX009 (ip), vehicle: saline

`COC(=O)Nc1cn2cc(C(=O)c3cccs3)ccc2n1` was tested, and the T/C (dose: 6.25 mg/kg/injection, schedule: Q01DX009 (ip), vehicle: Klucel (hydroxypropylcellulose) (HPC)) was 122 % of control, the T/C (dose: 25.0 mg/kg/injection, schedule: Q01DX009 (ip), vehicle: Klucel (hydroxypropylcellulose) (HPC)) was 159 % of control and 175 % of control and the T/C (dose: 50.0 mg/kg/injection, schedule: Q01DX009 (ip), vehicle: other) was 179 % of control.
In the case of `CC1=C(C)C(=O)O[C@@H]([C@](C)(O)[C@]2(O)CC[C@@]3(O)[C@@H]4C[C@H]5O[C@]56CC=CC(=O)[C@]6(C)[C@H]4CC[C@]23C)C1`, the T/C (dose: 1.56 mg/kg/injection, schedule: Q01DX009 (ip), vehicle: saline with Tween-80) is reported as 121 % of control, the T/C (dose: 3.12 mg/kg/injection, schedule: Q01DX009 (ip), vehicle: saline with Tween-80) is reported as 108 % of control and the T/C (dose: 6.25 mg/kg/injection, schedule: Q01DX009 (ip), vehicle: saline with Tween-80) is reported as 120 % of control. The T/C [1] was 120 % of control, the T/C [2] was 88 % of control and the T/C [3] was 153 % of control. The T/C [4] was 175 % of control.
In the case of `COc1ccc(CC(N)c2ccccc2)cc1` (stereo not given), the T/C [5] is reported as 99 % of control and the T/C [6] is reported as 96 % of control.
For `CCC(C)C1NC(=O)C(CC(C)C)NC(=O)C(C(C)C)NC(=O)C2CSSCC(NC1=O)C(=O)N2` (stereo not given) (cyclo(CCVLI); disulfide 1-2; configuration not given here), the T/C (dose: 31.25 micrograms/kg/injection, schedule: Q01DX009 (ip), vehicle: Klucel (hydroxypropylcellulose) (HPC)) was 105 % of control, the T/C (dose: 62.5 micrograms/kg/injection, schedule: Q01DX009 (ip), vehicle: Klucel (hydroxypropylcellulose) (HPC)) was 105 % of control and the T/C (dose: 125.0 micrograms/kg/injection, schedule: Q01DX009 (ip), vehicle: Klucel (hydroxypropylcellulose) (HPC)) was 96 % of control. The T/C (dose: 500.0 micrograms/kg/injection, schedule: Q01DX009 (ip), vehicle: Klucel (hydroxypropylcellulose) (HPC)) was 94 % of control and the T/C (dose: 1000.0 micrograms/kg/injection, schedule: Q01DX009 (ip), vehicle: Klucel (hydroxypropylcellulose) (HPC)) was 95 % of control.
`O=C(NCc1ccccc1)c1cccnc1` was tested, and the T/C [7] was 94 % of control, the T/C [8] was 94 % of control and the T/C (dose: 400.0 mg/kg/injection, schedule: Q01DX009 (ip), vehicle: saline with Tween-80) was 93 % of control.
`NC(CCC(=O)NC(CS)C(=O)NCC(=O)O)C(=O)O` (stereo not given) was tested, and the T/C [3] was 94 % of control, the T/C [4] was 113 % of control and 86 % of control and 101 % of control and the T/C [9] was 91 % of control and 104 % of control and 107 % of control.
`COCCOC` was tested, and the T/C [6] was 98 % of control, the T/C (dose: 200.0 mg/kg/injection, schedule: Q01DX009 (ip), vehicle: saline) was 94 % of control and the T/C [9] was 96 % of control.
For `COC(C(=O)C(O)C(C)O)C1CC2C=C3C=C(OC4CC(OC5CC(O)C(OC)C(C)O5)C(OC(C)=O)C(C)O4)C(C)C(=O)C3=C(O)C2=C(O)C1OC1CC(OC2CC(OC3CC(C)(O)C(O)C(C)O3)C(O)C(C)O2)C(O)C(C)O1` (stereo not given), the T/C (dose: 0.25 mg/kg/injection, schedule: Q01DX009 (ip), vehicle: saline with Tween-80) was 109 % of control, the T/C (dose: 0.5 mg/kg/injection, schedule: Q01DX009 (ip), vehicle: saline with Tween-80) was 120 % of control and the T/C (dose: 1.0 mg/kg/injection, schedule: Q01DX009 (ip), vehicle: saline with Tween-80) was 120 % of control. For the same compound, the T/C (dose: 4.0 mg/kg/injection, schedule: Q01DX009 (ip), vehicle: saline with Tween-80) was 178 % of control and the T/C (dose: 8.0 mg/kg/injection, schedule: Q01DX009 (ip), vehicle: saline with Tween-80) was 178 % of control.
With `O=C1N[C@@H]([C@H]2CC[C@H](Cl)CN2)C(=O)N[C@H]1[C@H]1CC[C@H](Cl)CN1` the T/C (dose: 0.25 mg/kg/injection, schedule: Q01DX005 (ip), vehicle: saline) was 99 % of control, the T/C (dose: 0.25 mg/kg/injection, schedule: Q01DX005 (iv), vehicle: saline) was 105 % of control and the T/C (dose: 0.25 mg/kg/injection, schedule: Q01DX009 (ip), vehicle: saline) was 107 % of control. The T/C (dose: 0.5 mg/kg/injection, schedule: Q01DX005 (ip), vehicle: saline) was 100 % of control, the T/C (dose: 0.5 mg/kg/injection, schedule: Q01DX005 (iv), vehicle: saline) was 95 % of control and the T/C (dose: 0.5 mg/kg/injection, schedule: Q01DX005 (oral), vehicle: saline) was 96 % of control. For the same compound, the T/C (dose: 0.5 mg/kg/injection, schedule: Q04DX003 (ip), vehicle: saline) was 97 % of control, the T/C (dose: 1.0 mg/kg/injection, schedule: Q01DX005 (ip), vehicle: saline) was 124 % of control and the T/C (dose: 1.0 mg/kg/injection, schedule: Q01DX005 (iv), vehicle: saline) was 99 % of control. The T/C (dose: 1.0 mg/kg/injection, schedule: Q01DX005 (oral), vehicle: saline) was 99 % of control, the T/C (dose: 1.0 mg/kg/injection, schedule: Q04DX003 (ip), vehicle: saline) was 103 % of control and the T/C (dose: 2.0 mg/kg/injection, schedule: Q01DX005 (iv), vehicle: saline) was 108 % of control. The T/C (dose: 2.0 mg/kg/injection, schedule: Q01DX005 (oral), vehicle: saline) was 115 % of control, the T/C (dose: 2.0 mg/kg/injection, schedule: Q04DX003 (ip), vehicle: saline) was 108 % of control and the T/C (dose: 4.0 mg/kg/injection, schedule: Q01DX005 (ip), vehicle: saline) was 183 % of control. For the same compound, the T/C (dose: 4.0 mg/kg/injection, schedule: Q01DX005 (iv), vehicle: saline) was 120 % of control, the T/C (dose: 4.0 mg/kg/injection, schedule: Q01DX005 (oral), vehicle: saline) was 110 % of control and the T/C (dose: 4.0 mg/kg/injection, schedule: Q04DX003 (ip), vehicle: saline) was 112 % of control.
`CC1Oc2cc3c(-c4c(O)cc(O)c5c(O)c6c(cc45)OC(C)C(C)C6=O)c(O)cc(O)c3c(O)c2C(=O)C1C` (stereo not given) was tested, and the T/C (dose: 0.31 mg/kg/injection, schedule: Q01DX009 (ip), vehicle: suspension in saline) was 117 % of control, the T/C (dose: 0.62 mg/kg/injection, schedule: Q01DX009 (ip), vehicle: suspension in saline) was 101 % of control and the T/C (dose: 1.25 mg/kg/injection, schedule: Q01DX009 (ip), vehicle: suspension in saline) was 109 % of control. For the same compound, the T/C (dose: 2.5 mg/kg/injection, schedule: Q01DX009 (ip), vehicle: suspension in saline) was 116 % of control.
In the case of `CC[N](CC)[Ge]([CH2]C)[CH2]C.CC[N](CC)[Ge]([CH2]C)[CH2]C`, the T/C (dose: 1.56 mg/kg/injection, schedule: Q01DX009 (ip), vehicle: saline) is reported as 106 % of control, the T/C (dose: 3.12 mg/kg/injection, schedule: Q01DX009 (ip), vehicle: saline) is reported as 103 % of control and the T/C [1] is reported as 103 % of control. The T/C [3] was 107 % of control and the T/C [4] was 108 % of control.
In the case of `CCCCCCCCCCCCOP(N)(=O)OCCCCCCCCCCCC`, the T/C [4] is reported as 100 % of control, the T/C [5] is reported as 90 % of control and the T/C [6] is reported as 89 % of control.
For `NS(=O)(=O)c1cc2c(cc1Cl)NC=NS2(=O)=O`, the T/C (dose: 37.5 mg/kg/injection, schedule: Q01DX009 (ip), vehicle: Klucel (hydroxypropylcellulose) (HPC)) was 94 % of control, the T/C (dose: 75.0 mg/kg/injection, schedule: Q01DX009 (ip), vehicle: Klucel (hydroxypropylcellulose) (HPC)) was 90 % of control and the T/C (dose: 150.0 mg/kg/injection, schedule: Q01DX009 (ip), vehicle: Klucel (hydroxypropylcellulose) (HPC)) was 95 % of control. The T/C (dose: 300.0 mg/kg/injection, schedule: Q01DX009 (ip), vehicle: Klucel (hydroxypropylcellulose) (HPC)) was 88 % of control.
`CCCCCn1c(C)cc(/C=C\c2ccc3cc(C)ccc3[n+]2C)c1C` was tested, and the T/C (dose: 39.0 micrograms/kg/injection, schedule: Q01DX009 (ip), vehicle: Klucel (hydroxypropylcellulose) (HPC)) was 93 % of control, the T/C (dose: 78.0 micrograms/kg/injection, schedule: Q01DX009 (ip), vehicle: Klucel (hydroxypropylcellulose) (HPC)) was 95 % of control and the T/C (dose: 156.0 micrograms/kg/injection, schedule: Q01DX009 (ip), vehicle: Klucel (hydroxypropylcellulose) (HPC)) was 100 % of control. The T/C (dose: 312.0 micrograms/kg/injection, schedule: Q01DX009 (ip), vehicle: Klucel (hydroxypropylcellulose) (HPC)) was 100 % of control and the T/C (dose: 625.0 micrograms/kg/injection, schedule: Q01DX009 (ip), vehicle: Klucel (hydroxypropylcellulose) (HPC)) was 96 % of control.
With `CCOC(=O)[C@]1(Br)CC[C@@]1(Br)C(=O)OCC` the T/C [2] was 108 % of control and 104 % of control, the T/C (dose: 25.0 mg/kg/injection, schedule: Q01DX009 (ip), vehicle: saline with Tween-80) was 110 % of control and 105 % of control and the T/C (dose: 50.0 mg/kg/injection, schedule: Q01DX009 (ip), vehicle: saline with Tween-80) was 98 % of control and 106 % of control. The T/C [7] was 100 % of control and 107 % of control and the T/C [8] was 110 % of control and 105 % of control.
